Measured values taken from patent US10131653B2, “Heterocyclic compound” (TAKEDA PHARMACEUTICAL COMPANY LIMITED, priority 2015, dated 2018).
Where a name gives a salt, the structure may show the parent alone. Read-outs that look alike come from different tables or passages of the source.

What was measured:
human OX1 receptor = target: T1, human OX1 receptor (Homo sapiens, UniProt O43613); test: Measurement of orexin receptor antagonistic activity (calcium fluorescence, FLIPRtetra); assay type: cell-based; details: CHO, read-out: Human Orexin1 receptor inhibition (at 10 μM)
T1 construct: expressed in transfected cells; host or cells: CHO cells
T1 sequence (O43613 1-425): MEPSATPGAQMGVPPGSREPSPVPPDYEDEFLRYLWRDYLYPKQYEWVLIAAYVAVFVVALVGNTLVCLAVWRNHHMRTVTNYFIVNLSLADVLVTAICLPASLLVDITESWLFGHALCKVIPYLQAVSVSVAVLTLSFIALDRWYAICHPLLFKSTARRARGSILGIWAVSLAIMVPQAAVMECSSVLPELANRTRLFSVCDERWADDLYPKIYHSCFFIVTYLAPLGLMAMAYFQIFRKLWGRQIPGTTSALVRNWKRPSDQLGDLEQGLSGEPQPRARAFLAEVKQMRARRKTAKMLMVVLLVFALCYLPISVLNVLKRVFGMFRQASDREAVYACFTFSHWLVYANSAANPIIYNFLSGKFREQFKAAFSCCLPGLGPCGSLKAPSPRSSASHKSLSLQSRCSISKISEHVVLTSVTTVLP
Experimental: (§1) Measurement of Orexin Receptor Antagonistic Activity
(§2) CHO cells forcibly expressing human OX1 receptor or human OX2 receptor were seeded in each well of 384 well black transparent bottom plate (BD Falcon) at 7,500 cells/well, and cultured for one day in a 5% CO2 incubator at 37° C. […] The plate was stood for 30 min in a 5% CO2 incubator at 37° C., and further stood at room temperature for 30 min. A test compound prepared by diluting with assay buffer B (HBSS, 20 mM HEPES, 0.1% BSA) was added at 10 μL/well, and then OX-A (OX1 receptor, final concentration; 1 nM) or OX-A (OX2 receptor, final concentration; 0.3 nM) was added at 10 μL/well, and the fluorescence value was measured by FLIPRtetra (Molecular Devices) every one sec for 2 min.

human OX2 receptor = target: T2, human OX2 receptor (Homo sapiens, UniProt O43614); test: as above; assay type: cell-based; details: CHO, read-out: Human Orexin2 receptor inhibition (at 10 μM)
T2 construct: expressed in transfected cells; host or cells: CHO cells
T2 sequence (O43614 1-444): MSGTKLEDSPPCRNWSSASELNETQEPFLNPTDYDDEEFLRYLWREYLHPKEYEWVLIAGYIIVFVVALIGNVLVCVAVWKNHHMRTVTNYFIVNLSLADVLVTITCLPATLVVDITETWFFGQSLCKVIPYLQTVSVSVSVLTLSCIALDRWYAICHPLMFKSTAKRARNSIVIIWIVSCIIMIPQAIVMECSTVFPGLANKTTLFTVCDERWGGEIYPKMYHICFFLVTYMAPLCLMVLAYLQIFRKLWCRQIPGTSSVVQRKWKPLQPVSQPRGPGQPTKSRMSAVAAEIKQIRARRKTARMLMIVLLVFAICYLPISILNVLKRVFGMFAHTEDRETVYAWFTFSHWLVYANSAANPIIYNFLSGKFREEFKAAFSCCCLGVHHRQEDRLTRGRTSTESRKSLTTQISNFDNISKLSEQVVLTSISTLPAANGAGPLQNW
Experimental: as §1, §2

[1] = 10 μM test compound, CHO cells expressing human OX1 receptor, OX-A 1 nM
[2] = 10 μM test compound, CHO cells expressing human OX2 receptor, OX-A 0.3 nM

inhibition at 10 µM (human OX1 receptor; [1]) | inhibition at 10 µM (human OX2 receptor; [2]) | SMILES | inhibition at 10 µM (human OX1 receptor) | inhibition at 10 µM (human OX2 receptor)
 |  | COc1cccc(C(=O)N2CCON(c3nc(C)cc(C)n3)CC2)c1Cl [Example 60, (2-chloro-3-methoxyphenyl) (2-(4,6-dimethylpyrimidin-2-yl)-1,2,5-oxadiazepan-5-yl)methanone] | -1% | 3%
22% | 94% | CCOc1ccccc1C(=O)N1CCON(c2nc(C)cc(C)n2)CC1 [Example 61, (2-(4,6-dimethylpyrimidin-2-yl)-1,2,5-oxadiazepan-5-yl) (2-ethoxyphenyl)methanone] |  | 
2% | 72% | Cc1cc(C)nc(N2CCN(C(=O)c3ccccc3C(F)(F)F)CCO2)n1 [Example 62] |  | 
 |  | COc1c(C#N)cccc1C(=O)N1CCON(c2nc(C)cc(C)n2)CC1 [Example 63, 3-((2-(4,6-dimethylpyrimidin-2-yl)-1,2,5-oxadiazepan-5-yl)carbonyl)-2-methoxybenzonitrile] | 11% | 49%
76% | 101% | Cc1cc(C)nc(N2CCN(C(=O)c3cccc4ccccc34)CCO2)n1 [Example 64, (2-(4,6-dimethylpyrimidin-2-yl)-1,2,5-oxadiazepan-5-yl) (1-naphthyl)methanone] |  | 
 |  | Cc1cc(C)nc(N2CCN(C(=O)c3cccc4ncccc34)CCO2)n1 [Example 65, (2-(4,6-dimethylpyrimidin-2-yl)-1,2,5-oxadiazepan-5-yl) (quinolin-5-yl)methanone] | 9% | 84%
13% | 90% | Cc1cc(C)nc(N2CCN(C(=O)c3cccc4cccnc34)CCO2)n1 [Example 66, (2-(4,6-dimethylpyrimidin-2-yl)-1,2,5-oxadiazepan-5-yl) (quinolin-8-yl)methanone] |  | 
 |  | Cc1cc(C)nc(N2CCN(C(=O)c3cccc4nccnc34)CCO2)n1 [Example 67, (2-(4,6-dimethylpyrimidin-2-yl)-1,2,5-oxadiazepan-5-yl) (quinoxalin-5-yl)methanone] | 5% | 44%
 |  | Cc1cc(C)nc(N2CCN(C(=O)c3cccc4ncc(C)nc34)CCO2)n1 [Example 68, (2-(4,6-dimethylpyrimidin-2-yl)-1,2,5-oxadiazepan-5-yl) (3-methylquinoxalin-5-yl)methanone] | 28% | 87%
 |  | Cc1cc(C)nc(N2CCN(C(=O)c3cccc4nn(C)cc34)CCO2)n1 [Example 69, (2-(4,6-dimethylpyrimidin-2-yl)-1,2,5-oxadiazepan-5-yl) (2-methyl-2H-indazol-4-yl) methanone] | 3% | 45%
 |  | Cc1cc(C)nc(N2CCN(C(=O)c3cccc4nc(C)oc34)CCO2)n1 [Example 70, (2-(4,6-dimethylpyrimidin-2-yl)-1,2,5-oxadiazepan-5-yl) (2-methyl-1,3-benzoxazol-7-yl)methanone] | -6% | 17%
 |  | Cc1cc(C)nc(N2CCN(C(=O)c3cccc4ccn(C)c34)CCO2)n1 [Example 71, (2-(4,6-dimethylpyrimidin-2-yl)-1,2,5-oxadiazepan-5-yl) (1-methyl-1H-indol-7-yl) methanone] | 53% | 99%
34% | 94% | Cc1cc(C)nc(N2CCN(C(=O)c3cccc4c3ccn4C)CCO2)n1 [Example 72, (2-(4,6-dimethylpyrimidin-2-yl)-1,2,5-oxadiazepan-5-yl) (1-methyl-1H-indol-4-yl) methanone] |  | 
 |  | Cc1cc(C)nc(N2CCN(C(=O)c3cccc4nsnc34)CCO2)n1 [Example 73, 2,1,3-benzothiadiazol-4-yl (2-(4,6-dimethylpyrimidin-2-yl)-1,2,5-oxadiazepan-5-yl)methanone] | 13% | 42%
10% | 57% | Cc1cc(C)nc(N2CCN(C(=O)c3cccc4c3OCC4)CCO2)n1 [Example 74, 2,3-dihydro-1-benzofuran-7-yl (2-(4,6-dimethylpyrimidin-2-yl)-1,2,5-oxadiazepan-5-yl)methanone] |  | 
 |  | Cc1cc(C)nc(N2CCN(C(=O)c3cccc4c3OC(C)(C)C4)CCO2)n1 [Example 75, (2,2-dimethyl-2,3-dihydro-1-benzofuran-7-yl) (2-(4,6-dimethylpyrimidin-2-yl)-1,2,5-oxadiazepan-5-yl)methanone] | 10% | 75%
 |  | Cc1cc(C)nc(N2CCN(C(=O)c3cccc4c3C(=O)N(C)C4)CCO2)n1 [Example 76, 7-((2-(4,6-dimethylpyrimidin-2-yl)-1,2,5-oxadiazepan-5-yl)carbonyl)-2-methylisoindolin-1-one] | 6% | 22%
 |  | COc1cc2c(cc1C(=O)N1CCON(c3nc(C)cc(C)n3)CC1)CCC2 [Example 77, (2-(4,6-dimethylpyrimidin-2-yl)-1,2,5-oxadiazepan-5-yl) (6-methoxy-2,3-dihydro-1H-inden-5-yl)methanone] | 12% | 69%
27% | 52% | Cc1cc(C)nc(N2CCN(C(=O)c3cccc(-c4ccccc4)c3)CCO2)n1 [Example 78, biphenyl-3-yl (2-(4,6-dimethylpyrimidin-2-yl)-1,2,5-oxadiazepan-5-yl)methanone] |  | 
57% | 98% | Cc1cc(C)nc(N2CCN(C(=O)c3ccccc3-c3ccccc3)CCO2)n1 [Example 79, biphenyl-2-yl (2-(4,6-dimethylpyrimidin-2-yl)-1,2,5-oxadiazepan-5-yl)methanone] |  | 
 |  | Cc1cc(C)nc(N2CCN(C(=O)c3ccccc3-n3cccc3)CCO2)n1 [Example 80, (2-(4,6-dimethylpyrimidin-2-yl)-1,2,5-oxadiazepan-5-yl) (2-(1H-pyrrol-1-yl)phenyl)methanone] | 14% | 94%
85% | 99% | Cc1cc(C)nc(N2CCN(C(=O)c3ccccc3-c3ccco3)CCO2)n1 [Example 81, (2-(4,6-dimethylpyrimidin-2-yl)-1,2,5-oxadiazepan-5-yl) (2-(2-furyl)phenyl)methanone] |  | 
18% | 83% | Cc1cc(C)nc(N2CCN(C(=O)c3ccccc3-c3ncc[nH]3)CCO2)n1 [Example 82, (2-(4,6-dimethylpyrimidin-2-yl)-1,2,5-oxadiazepan-5-yl) (2-(1H-imidazol-2-yl)phenyl)methanone] |  | 
 |  | Cc1cc(C)nc(N2CCN(C(=O)c3cc(C#N)ccc3C)CCO2)n1 [Example 83, 3-((2-(4,6-dimethylpyrimidin-2-yl)-1,2,5-oxadiazepan-5-yl)carbonyl)-4-methylbenzonitrile] | 7% | 24%
100% | 98% | Cc1cc(N2CCN(C(=O)c3ccccc3-c3nccs3)C[C@H](C)O2)nc(C)n1 [Example 84, ((7S)-2-(2,6-dimethylpyrimidin-4-yl)-7-methyl-1,2,5-oxadiazepan-5-yl)(2-(1,3-thiazol-2-yl)phenyl)methanone] |  | 
98% | 102% | Cc1nc(N2CCN(C(=O)c3ccccc3-c3nccs3)C[C@H](C)O2)cc(C(F)(F)F)n1 [Example 85, ((7S)-7-methyl-2-(2-methyl-6-(trifluoromethyl)pyrimidin-4-yl)-1,2,5-oxadiazepan-5-yl)(2-(1,3-thiazol-2-yl)phenyl)methanone] |  | 
81% | 102% | Cc1cc(N2CCN(C(=O)c3cc(F)ccc3-c3nccs3)C[C@H](C)O2)nc(C)n1 [Example 87, ((7S)-2-(2,6-dimethylpyrimidin-4-yl)-7-methyl-1,2,5-oxadiazepan-5-yl)(5-fluoro-2-(1,3-thiazol-2-yl)phenyl)methanone hydrochloride] |  | 
